row,SMILES,melting point
1,"CSc1ccc(-c2nc(-c3cccc(C)c3)c(-c3ccnc(F)c3)s2)cc1 [H 15, 5-(2-fluoro-4-pyridyl)-4-(3-methylphenyl)-2-[4-(methylthio)phenyl]-1,3-thiazole]",97 to 100 °C
2,"CCc1nc(-c2cccs2)c(-c2ccnc(NC(=O)c3ccccc3)c2)s1 [L 70-4, N-[4 [2 ethyl-4 (2-thienyl)-1,3 thiazol-5 yl]-2 pyridyl]benzamide]",116 to 117 °C
3,"CC(=O)Nc1cc(-c2sc(C(C)O)nc2-c2cccc(C)c2)ccn1 (centres unmarked) [H 111-1, N-[4 [2 (1 hydroxyethyl)-4-(3 methylphenyl)-1,3 thiazol-5 yl]-2 pyridyl]acetamide]",99 to 102 °C
4,"Cc1cccc(-c2nc(N)sc2-c2ccnc(C)c2)c1 [H 7-4, [4-(3-methylphenyl)-5-(2-methyl-4-pyridyl)-1,3-thiazol-2-yl]amine]",205 to 206 °C
5,"Cc1cccc(-c2nc(-c3ccc(S(C)(=O)=O)cc3)sc2-c2ccnc(NCCCc3ccccc3)c2)c1 [D 21-6, N-[4-[4-(3-methylphenyl)-2-(4-methylsulfonylphenyl)-1,3-thiazol-5-yl]-2-pyridyl]-N-(3-phenylpropyl)amine]",167 to 168 °C
6,"Cc1cccc(-c2nc(NC(=O)c3ccc(C)nc3)sc2-c2ccnc(NC3CCCCC3)c2)c1 [H 46-1, N-[5 (2 cyclohexylamino-4-pyridyl)-4 (3 methylphenyl)-1,3 thiazol-2 yl]-6-methylnicotinamide]",242 to 243 °C
7,"CCC(=O)Nc1cc(-c2sc(C(C)O)nc2-c2cccc(C)c2)ccn1 (centres unmarked) [H 104, N-[4 [2 (1 hydroxyethyl)-4 (3 methylphenyl)-1,3 thiazol-5 yl]-2 pyridyl]propionamide]",115 to 116 °C
8,"CCCc1nc(-c2cccc(Cl)c2)c(-c2ccnc(NC(C)=O)c2)s1 [H 30-3, N-[4-[4-(3-chlorophenyl)-2-propyl-1,3-thiazol-5-yl]-2-pyridyl]acetamide]",144 to 145 °C
9,"CCC(=O)Nc1cc(-c2sc(CCSC)nc2-c2cccc(Cl)c2)ccn1 [H 102-2, N-[4 [4 (3 chlorophenyl)-2 [2 (methylthio)ethyl]-1,3 thiazol-5 yl]-2-pyridyl]propionamide]",91 to 92 °C
10,"CCc1nc(-c2ccc(F)cc2)c(-c2ccnc(NC(=O)Cc3ccccc3)c2)s1 [L 68-7, N-[4 [2 ethyl-4 (4-fluorophenyl)-1,3 thiazol-5 yl]-2 pyridyl]phenylacetamide]",178 to 179 °C
11,"CCC(=O)Nc1cc(-c2sc(C3CCN(C(C)=O)CC3)nc2-c2cccc(Cl)c2)ccn1 [H 94, N-[4 [2 (1 acetylpiperidin-4-yl)-4 (3 chlorophenyl)-1,3 thiazol-5 yl]-2-pyridyl]propionamide]",174 to 175 °C
12,"Cc1cccc(-c2nc(N3CCNC3=O)sc2-c2ccnc(C)c2)c1 [H 66, 1 [4 (3 methylphenyl)-5 (2-methyl-4 pyridyl)-1,3 thiazol-2 yl]imidazolidin-2 one]",200 to 201 °C
13,"Cc1cccc(-c2nc(-c3ccc(S(C)(=O)=O)cc3)sc2-c2ccnc(NC3CCCCC3)c2)c1 [H 36-5, N-cyclohexyl-4-[4-(3-methylphenyl)-2-(4-methylsulfonylphenyl)-1,3-thiazol-5-yl]-2-pyridylamine]",197 to 199 °C
14,"Cc1cccc(-c2nc(-c3ccc(S(C)(=O)=O)cc3)sc2N2C=CC=CC2N2CCCCC2)c1 (centres unmarked) [H 35-2, 4 (3 methylphenyl)-2 (4-methylsulfonylphenyl)-5 (2 piperidino-1 pyridyl)-1,3 thiazole]",155 to 157 °C
15,"CC(=O)Nc1nc(-c2cc(C)cc(C)c2)c(-c2ccnc(C)c2)s1 [H 40-1, N-[4 (3,5 dimethylphenyl)-5 (2 methyl-4 pyridyl)-1,3 thiazol-2 yl]acetamide]",236 to 237 °C
16,"COc1ccc(-c2nc(NC(C)=O)sc2-c2ccnc(N)c2)cc1 [H 50, N-[5 (2 amino-4 pyridyl)-4-(4 methoxyphenyl)-1,3 thiazol-2 yl]acetamide]",247 to 250 °C
17,"CSc1ccc(-c2nc(-c3cccc(C)c3)c(-c3ccnc(NC(C)=O)c3)s2)cc1 [H 82-12, N-[4 [4 (3 methylphenyl)-2 [4 (methylthio)phenyl]-1,3 thiazol-5 yl]-2 pyridyl]acetamide]",181 to 182 °C
18,"CCC(=O)Nc1cc(-c2sc(CC)nc2-c2cccc(C(F)(F)F)c2)ccn1 [H 84-3, N-[4 [2 ethyl-4 (3-trifluoromethylphenyl)-1,3 thiazol-5 yl]-2 pyridyl]propionamide]",126 to 127 °C
19,"CCc1nc(-c2ccc(SC)cc2)c(-c2ccnc(N)c2)s1 [H 20-5, 4 [2 ethyl-4 [4-(methylthio)phenyl]-1,3 thiazol-5 yl]-2 pyridylamine]",119 to 120 °C
20,"Cc1cccc(-c2nc(NC(=O)Nc3ccccc3)sc2-c2ccnc(NC3CCCC3)c2)c1 [H 53-3, N-[5 (2 cyclopentylamino-4 pyridyl)-4 (3 methylphenyl)-1,3 thiazol-2 yl]-N′-phenylurea]",188 to 190 °C
21,"CCC(=O)Nc1cc(-c2sc(CSC)nc2-c2cccc(Cl)c2)ccn1 [H 102-3, N-[4 [4 (3 chlorophenyl)-2 (methylthio)methyl-1,3 thiazol-5 yl]-2 pyridyl]propionamide]",118 to 119 °C
22,"CNc1nc(-c2cccc(C)c2)c(-c2ccnc(NC3CCCCC3)c2)s1 [H 36-2, N-methyl-[5 (2-cyclohexylamino-4 pyridyl)-4 (3 methylphenyl)-1,3 thiazol-2-yl]amine]",211 to 212 °C
23,"Cc1cccc(-c2nc(-c3ccccc3)sc2-c2ccnc(C)c2)c1 [H 14-6, 4 (3 methylphenyl)-5 (2-methyl-4 pyridyl)-2 phenyl-1,3 thiazole]",79 to 80 °C
24,"Cc1cccc(-c2nc(-c3ccccc3Cl)sc2-c2ccnc(NC(=O)c3ccccc3)c2)c1 [D 16-13, N-[4 [2 (2 chlorophenyl)-4 (3 methylphenyl)-1,3 thiazol-5 yl]-2 pyridyl]benzamide]",138 to 140 °C

# Next, values leading:
row,melting point,SMILES
1,194 to 195 °C,"Nc1nc(-c2ccc(F)cc2)c(-c2ccnc(NC3CCCCC3)c2)s1 [H 36-1, [5 (2 cyclohexylamino-4-pyridyl)-4 (4 fluorophenyl)-1,3 thiazol-2 yl]amine]"
2,105 to 107 °C,"CCC(=O)Nc1cc(-c2sc(CC)nc2-c2ccc(F)c(C)c2)ccn1 [H 84-4, N-[4 [2 ethyl-4 (4 fluoro-3 methylphenyl)-1,3 thiazol-5 yl]-2 pyridyl]propionamide]"
3,85 to 86 °C,"CCC(=O)Nc1cc(-c2sc(CCSC)nc2-c2cccc(C)c2)ccn1 [H 102-1, N-[4 [4 (3 methylphenyl)-2 [2 (methylthio)ethyl]-1,3 thiazol-5 yl]-2-pyridyl]propionamide]"
4,156 to 157 °C,"CCC(=O)Nc1cc(-c2sc(CC)nc2-c2ccc(F)cc2)ccn1 [H 84-2, N-[4 [2 ethyl-4 (4-fluorophenyl)-1,3 thiazol-5 yl]-2 pyridyl]propionamide]"
5,124 to 125 °C,"CCc1nc(-c2cccc(C)c2)c(-c2ccnc(NC(=O)c3ccc(OC)cc3)c2)s1 [L 39-2, N-[4 [2 ethyl-4 (3-methylphenyl)-1,3 thiazol-5 yl]-2 pyridyl]-4 methoxybenzamide]"
6,140 to 141 °C,"CCc1nc(-c2ccc(F)cc2)c(-c2ccnc(N)c2)s1 [H 20-3, 4 [2 ethyl-4 (4-fluorophenyl)-1,3 thiazol-5 yl]-2 pyridylamine]"
7,261 to 262 °C,"Cc1cc(-c2sc(NC(=O)c3cccnc3)nc2-c2ccc(F)cc2)ccn1 [H 42-7, N-[4 (4 fluorophenyl)-5-(2 methyl-4 pyridyl)-1,3 thiazol-2 yl]nicotinamide]"
8,219 to 221 °C,"COc1ccc(C(=O)Nc2nc(-c3cccc(C)c3)c(-c3ccnc(NC4CCCC4)c3)s2)cn1 [H 48-2, N-[5 (2 cyclopentylamino-4 pyridyl)-4 (3 methylphenyl)-1,3-thiazol-2 yl]-6-methoxynicotinamide]"
9,256 to 258 °C,"Cc1cc(C)cc(-c2nc(N)sc2-c2cc(C)nc(C)c2)c1 [H 7-7, [4 (3,5 dimethylphenyl)-5-(2,6 dimethyl-4 pyridyl)-1,3 thiazol-2 yl]amine]"
10,284 to 286 °C,"CC(=O)Nc1nc(-c2cc(C)cc(C)c2)c(-c2ccncc2)s1 [Reference Example A 23-128, N-[4-(3,5-dimethylphenyl)-5-(4-pyridyl)-1,3-thiazol-2-yl]acetamide]"
11,175 to 176 °C,"CCc1nc(-c2ccccc2)c(-c2ccnc(NC(C)=O)c2)s1 [H 82-1, N-[4 (2 ethyl-4 phenyl-1,3-thiazol-5 yl)-2 pyridyl]acetamide]"
12,150 to 151 °C,"Cc1cccc(-c2nc(N(C)C(=O)c3cccnc3)sc2-c2ccnc(NC3CCCC3)c2)c1 [L 65-3, N-methyl-N-[5 (2-cyclopentylamino-4 pyridyl)-4 (3 methylphenyl)-1,3 thiazol-2-yl]nicotinamide]"
13,180 to 182 °C,"Cc1cccc(-c2nc(N3CCN(c4ccccc4)C3=O)sc2-c2ccnc(C)c2)c1 [H 67, 1 [4 (3 methylphenyl)-5 (2 methyl-4 pyridyl)-1,3 thiazol-2-yl]-3 phenylimidazolidin-2 one]"
14,211 to 212 °C,"Cc1cccc(-c2nc(NC(=O)c3ccc(Cl)nc3)sc2-c2ccnc(NC3CCCC3)c2)c1 [H 44-2, 6 chloro-N-[5 (2-cyclopentylamino-4 pyridyl)-4 (3 methylphenyl)-1,3 thiazol-2-yl]nicotinamide]"
15,270 to 272 °C,"Cc1cc(C)cc(-c2nc(NC(=O)C(C)C)sc2-c2ccncc2)c1 [23-195, N-[4 (3,5 dimethylphenyl)-5 (4 pyridyl)-1,3 thiazol-2 yl]-2-methylpropionamide]"
16,228 to 230 °C,"Cc1cccc(-c2nc(NC(=O)c3ccc(Cl)nc3)sc2-c2ccnc(C)c2)c1 [H 43, 6 chloro-N-[4 (3-methylphenyl)-5 (2 methyl-4 pyridyl)-1,3 thiazol-2-yl]nicotinamide]"
17,67 to 69 °C,"CCc1nc(-c2cccc(C)c2)c(-c2ccnc(NCC3CCCC3)c2)s1 [H 32, N-(cyclopentylmethyl)-4 [2-ethyl-4 (3 methylphenyl)-1,3 thiazol-5 yl]-2 pyridylamine]"
